One substance from PMC10154249, “Unique progerin C-terminal peptide ameliorates Hutchinson–Gilford progeria syndrome phenotype by rescuing BUBR1” (Nature Aging, 2023) can be followed below.

Several values for one entry are separate records, joined by “and”; a condition that tells them apart may be missing. Equal entries are not always repeated.

Assay [1] deals with T1, PTBP1 (Homo sapiens, UniProt P26599).
T1 construct: made in house
As to the kind of experiment: Pulldown assay of UPCP and PTBP1. Format: binding. The settings on record: pulldown (and MST); His-UPCP 10 μg with Flag beads-PTBP1, 16 h at 4 °C. How it is done:
(§1) Cells were harvested and lysed in buffer A mixed with protease inhibitor cocktail tablet (Roche) after 48 h. […] The beads were washed three times using 1× Tris saline buffer (50 mM Tris-HCl (pH 7.4) and 150 mM NaCl)) for 8 min each. The bound proteins BUBR1 or PTBP1 were eluted with 3×Flag peptide (ApexBio) for 2 h at 4 °C. Finally, BUBR1 or PTBP1 was concentrated and recovered by using the Centrifugal Filters (Amicon Ultra).
(§2) A detailed description of the pulldown assay was described previously. His-UPCP fusion protein was expression in bacteria (BL21) and induced with 0.5 mM isopropyl-β-D-thio-galactoside for 16 h at 16 °C. The bacteria were harvested and lysed in TEN buffer (20 mM Tris-HCl (pH7.4), 0.1mM EDTA, 100 mM NaCl). […] His-UPCP was eluted with Imidazole eluent (50 mM NaH2PO4, 300 mM NaCl and 50 mM Imidazole) for 2 h at 4 °C and concentrated and recovered using centrifugal filters (Amicon Ultra). For the pulldown of His-UPCP and Flag-BUBR1 or Flag-PTBP1, 10 μg His-UPCP was incubated with Flag beads (Biotool, catalog no. B23102), Flag beads-BUBR1 or Flag beads-PTBP1 respectively for 16 h at 4 °C. The beads were washed three times with PBS and added to 1× loading buffer for western blot.

In another assay the target is T2, BUBR1 (Homo sapiens, UniProt O60566).
T2 construct: made in house
T2 sequence (O60566 whole entry): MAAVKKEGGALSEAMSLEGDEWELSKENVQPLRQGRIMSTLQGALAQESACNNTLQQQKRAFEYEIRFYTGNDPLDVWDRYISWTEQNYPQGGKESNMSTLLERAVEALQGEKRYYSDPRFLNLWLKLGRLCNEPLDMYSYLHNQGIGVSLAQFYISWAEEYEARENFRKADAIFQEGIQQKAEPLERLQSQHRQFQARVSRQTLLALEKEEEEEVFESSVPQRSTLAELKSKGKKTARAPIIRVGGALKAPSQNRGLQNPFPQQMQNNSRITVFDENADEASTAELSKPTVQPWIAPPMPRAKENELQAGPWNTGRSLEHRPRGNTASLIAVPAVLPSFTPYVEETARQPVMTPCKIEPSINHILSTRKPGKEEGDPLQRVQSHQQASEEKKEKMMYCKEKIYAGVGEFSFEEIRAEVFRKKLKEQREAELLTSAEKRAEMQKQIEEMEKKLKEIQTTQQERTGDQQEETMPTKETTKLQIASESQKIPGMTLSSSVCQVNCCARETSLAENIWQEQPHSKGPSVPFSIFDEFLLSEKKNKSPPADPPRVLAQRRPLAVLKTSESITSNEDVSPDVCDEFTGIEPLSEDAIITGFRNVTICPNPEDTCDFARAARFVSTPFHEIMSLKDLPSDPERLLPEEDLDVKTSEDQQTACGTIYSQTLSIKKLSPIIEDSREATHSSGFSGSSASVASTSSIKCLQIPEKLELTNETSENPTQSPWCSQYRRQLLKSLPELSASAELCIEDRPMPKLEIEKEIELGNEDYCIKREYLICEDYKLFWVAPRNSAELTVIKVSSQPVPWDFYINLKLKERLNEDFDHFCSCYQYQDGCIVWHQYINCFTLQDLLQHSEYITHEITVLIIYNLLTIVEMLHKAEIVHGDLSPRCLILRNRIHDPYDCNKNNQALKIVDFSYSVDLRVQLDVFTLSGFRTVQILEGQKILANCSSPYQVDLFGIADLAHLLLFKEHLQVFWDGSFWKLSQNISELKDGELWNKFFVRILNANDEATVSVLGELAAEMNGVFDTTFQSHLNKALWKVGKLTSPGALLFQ
Description: Pulldown assay of UPCP and BUBR1. It counts as binding. The settings on record: pulldown (and MST); His-UPCP 10 μg with Flag beads-BUBR1, 16 h at 4 °C. On the procedure:
as §1, §2

For a further assay, the system named is Lmna^G609G/G609G mice. As to the kind of experiment: Open field test. Format: in vivo, mouse. The settings on record: for Distance: LmnaG609G/G609G-UPCP, one line per mouse. On the procedure:
For UPCP injection, 14-day-old Lmna^G609G/G609G mice were injected intraperitoneally with either PBS or UPCP (20 mg kg^–1, every other day) and wild-type mice were injected with PBS. All phenotypic analyses were performed after 12 weeks of treatment with UPCP. Bodyweight and lifespan were monitored after UPCP treatment. The survival rate was analyzed by the Kaplan–Meier method. We only included mice that were of sufficient bodyweight at the start of the experiment, typically at least 80% of the average littermate weight of the same sex and genotype. All animals meeting criteria for inclusion were then divided randomly into three groups according to genotype (Lmna^+/+, Lmna^G609G/G609G-Mock and Lmna^G609G/G609G-UPCP).
The mice were acclimated to the testing room for 2 h before the test. Before each individual trial, the testing apparatus was cleaned with 75% ethanol. Mice were placed individually in a random corner of the box (40 × 40 × 35 cm) facing the wall. Their movements, indicating locomotor activity, were recorded with a video camera for 20 min and were analyzed with Ethovision XT 10 (Noldus).

Assay [2] has as its target T1, PTBP1. As to the kind of experiment: Microscale thermophoresis (MST) of UPCP and PTBP1. The settings on record: Fig. 4l. It counts as binding. On the procedure: as §1
His-UPCP was eluted with Imidazole eluent for 2 h at 4 °C and concentrated and recovered by using centrifugal filters (Amicon Ultra). Flag-BUBR1 or PTBP1 was purified as described in Affinity purification of Flag-tagged protein. The purified protein was diluted with 0.05% Tween-20 in PBS in to an appropriate concentration (His-UPCP: 50 nM, Flag-BUBR1: 25 μM, Flag-PTBP1: 45 μM). Then, His-UPCP was labeled with RED-Tris-NAT according to the manufacturer’s instructions (NanoTemper, MO-L018). Flag-BUBR1 or Flag-PTBP1 was diluted by 16 concentration gradients in turn and mixed with labeled protein (His-UPCP). The capillaries (MST NT115 premium) were loaded and the samples measured on the instrument (NanoTemper Monolith NT.115). Data were analyzed by MO.AffinityAnalysis and curves were drawn using Origin 2019.

The next assay relates to HGADFN167 cells. Description: SA-β-gal staining of HGADFN167 cells. It counts as cell-based, human. How it is done:
SA-β-gal staining was performed as previously described. Cells were fixed in 0.5% glutaraldehyde for 15 min at room temperature, washed three times with PBS (pH 6.0) containing 1 mM MgCl2 and exposed overnight 37 °C to containing 1 mg ml^–1 5-bromo-4-chloro-3-indolyl-β-D-galactopyranoside (MCE, catalog no. HY-15934), 0.12 mM potassium ferrocyanide (Sigma, catalog no. P3289), 0.12 mM potassium ferricyanide (Sigma, catalog no. P8131) and 1 mM MgCl2 PBS buffer (pH 6.0). Cells were washed three times with H2O and observed under a microscope (OLYMPUS CKX53). SA-β-gal positive cells were quantified by investigators who were blinded to the identity of the analyzed cell.

T1 sequence (P26599 whole entry): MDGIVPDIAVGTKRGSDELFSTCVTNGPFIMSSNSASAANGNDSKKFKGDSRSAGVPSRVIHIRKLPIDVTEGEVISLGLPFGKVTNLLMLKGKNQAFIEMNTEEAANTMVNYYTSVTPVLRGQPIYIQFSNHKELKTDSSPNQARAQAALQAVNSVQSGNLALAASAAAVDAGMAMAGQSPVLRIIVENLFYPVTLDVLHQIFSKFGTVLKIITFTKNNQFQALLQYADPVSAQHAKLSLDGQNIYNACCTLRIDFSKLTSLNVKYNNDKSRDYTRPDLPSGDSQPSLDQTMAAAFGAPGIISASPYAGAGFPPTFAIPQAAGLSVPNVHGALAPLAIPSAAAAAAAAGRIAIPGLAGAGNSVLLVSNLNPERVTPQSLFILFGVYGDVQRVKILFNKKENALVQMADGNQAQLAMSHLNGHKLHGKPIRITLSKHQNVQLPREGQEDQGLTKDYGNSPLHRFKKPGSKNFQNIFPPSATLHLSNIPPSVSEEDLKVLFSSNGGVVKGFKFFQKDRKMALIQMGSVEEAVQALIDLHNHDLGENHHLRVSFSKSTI

With “H-YGRKKRRQRRRYNLRSRTVLCGTCGQPADKASASGSGAQSPQNCSIM-OH (cysteines drawn unpaired) [UPCP, unique progerin C-terminal peptide]”, on PTBP1 [1], the “combination with PTBP1” value is “combined with PTBP1”. Further, the “direct combination with BUBR1” value at BUBR1 is recorded as “could combine with BUBR1 directly in vitro”. Also, the mobility result in the assay on Lmna^G609G/G609G mice (20 mg kg^–1 i.p. every other day, open field, 20 min) is given as “enhanced the mobility”. The Distance in the assay on Lmna^G609G/G609G mice (female mice, Fig. 6g) was 3465.62 cm and 4842.39 cm and 4480.91 cm and 4399.08 cm and 3236.68 cm and 4440.93 cm; in the assay on Lmna^G609G/G609G mice (male mice, Fig. 6h) it was 5127.23 cm and 4324.53 cm and 5298.93 cm and 5261.99 cm and 4436.52 cm and 3525.05 cm. Moreover, the “Dose Response Curve, Response” value was 926.063 on PTBP1 [2] (Dose 5.625e-6, Err-Value 0.11619); 928.882 on PTBP1 [2] (Dose 1.125e-5, Err-Value 0.242742); 930.614 on PTBP1 [2] (Dose 2.25e-5, Err-Value 0.492149); 918.746 on PTBP1 [2] (Dose 1.10E-08, Err-Value 0.170403); 919.158 on PTBP1 [2] (Dose 1.37E-09, Err-Value 0.46814); 921.756 at PTBP1 [2] (Dose 1.41E-06, Err-Value 0.643872). Besides, the “Dose Response Curve, Response” value on PTBP1 [2] (Dose 1.76E-07, Err-Value 0.140462) stood at 919.37; at PTBP1 [2] (Dose 2.20E-08, Err-Value 0.425445), 918.898; at PTBP1 [2] (Dose 2.75E-09, Err-Value 0.242938), 919.038; on PTBP1 [2] (Dose 2.81E-06, Err-Value 0.290637) it was 923.469; at PTBP1 [2] (Dose 3.52E-07, Err-Value 0.0904303) it was 919.901; on PTBP1 [2] (Dose 4.39E-08, Err-Value 0.556308) it was 918.749. The “Dose Response Curve, Response” value at PTBP1 [2] (Dose 5.49E-09, Err-Value 0.120596) is 918.787; on PTBP1 [2] (Dose 6.87E-10, Err-Value 0.420573), 919.333; on PTBP1 [2] (Dose 7.03E-07, Err-Value 0.21429) it was 920.338; on PTBP1 [2] (Dose 8.79E-08, Err-Value 0.322491), 918.54. Also, the SA-β-gal positive cells in the assay with HGADFN167 cells (HGADFN167, replicate 1) is given as 24%; in the assay with HGADFN167 cells (HGADFN167, replicate 2), 26%; with HGADFN167 cells (HGADFN167, replicate 3) it was 20%.
